One may read the IC50 as the concentration that inhibits the measured activity by half.

The conditions of data set [1]: male, rat, in vivo. The procedure: (§1) Using an in vivo rat model, the effect of Rho-kinase inhibition on corpus cavernosum (CCP) and mean arterial pressure (MAP) was examined. The left carotid artery and right corpus cavernosum of the rat penis were cannulated for continuous monitoring of MAP and CCP respectively as described by Mills, T., et al., (Biol. Reprod. 59, 1413-1418, 1998; J. Appl. Physiol., 91: 1269-1273, 2001). Rats were anesthetized with intramuscular ketamine (87 mg/kg body wt) plus xylazine (13 mg/kg) and maintained on supplemental ketamine as needed. Vasoactive drugs were administered through a cannula in the left corpus cavernosum. For experiments measuring voltage-stimulated changes in CCP and MAP, stainless steel bipolar electrodes were positioned on the right major pelvic ganglion. […] All pressure data were collected for analysis using Polyview data-acquisition software.

Data set [2] has as its system animal model of hypertension. The conditions noted are these: cited from earlier work.
For the next data set, the system named is erectile tissue. The experiment in a line: Erectile response ICP/MAP to NO donor and Rho-kinase inhibitor injected into erectile tissue. In kind it is in vivo. The note with it: small/low dose injected directly into erectile tissue.
The test system of data set [3] is DOCA-salt hypertensive rats. The experiment in a line: Ganglionic-mediated ICP/MAP in DOCA-salt hypertensive rats. In kind it is in vivo, rat. The note with it: 50 nmol/kg into left corpus cavernosum, 1-5 V. The text has this:
(§2) In these experiments, male Sprague-Dawley rats (200-250 g; Harlan) were made DOCA-salt hypertensive by uninephrectomy and implantation of a deoxycorticosterone-acetate (DOCA) silastic pellet at the back of the neck. DOCA rats received saltwater (1% NaCl, 0.2% KCl) for 4 weeks. Sham control rats were uninephrectomized and drank tap water. Male stroke prone-spontaneously hypertensive rats (12 weeks old, 350 g) were obtained from the breeding colony at the Medical College of Georgia, Augusta, Ga. Systolic blood pressures were taken by tail cuff measurement (DOCA/sham: after 4 weeks treatment; SHRSP: at 12 weeks of age). Measurement of ICP/MAP was as described above. […] Subsequently, the ICP/MAP response to ganglionic stimulation was assessed over a range of voltages.

The test system of data set [4] is corpus cavernosum. The experiment in a line: Intracavernosal injection in anesthetized rat, CCP/MAP without ganglionic stimulation. In kind it is in vivo. More on the design: time to plateau of CCP/MAP increase: unit not given here. The procedure:
as §1

Another data set deals with SHRSP rats. The experiment in a line: Ganglionic-mediated ICP/MAP in stroke prone spontaneously hypertensive rats (SHRSP). In kind it is in vivo, rat. The conditions noted are these: 50 nmol/kg into left corpus cavernosum, 1-5 V.
Excerpt: as §2

The subject of data set [5] is isolated rat cavernosal tissue. The experiment in a line: Isolated rat cavernosal strips, relaxation of agonist-induced contraction. In kind it is cell-based. The note with it: for effect on relaxation response of cavernosal strips to 1 μM Y-27632: 10 μM incubation. The procedure:
Cavernosal strips (3-4 mm long) were prepared by removal of the corpus spongiosum and dorsal vein, and the proximal portion of the corpus cavernosum divided across the midline of the intact penis. Right and left longitudinal strips were mounted in an isolated muscle bath for measurement of contractile force generation. Strips were bathed in physiologic salt solution (130 mM NaCl, 4.7 mM KCl, 1.18 mM KHPO4, 1.17 mM […], 1.6 mM CaCl2-2H2O, 14.9 mM NaHCO3, 5.5 mM dextrose, and 0.03 mM CaNa2 EDTA), at 37° C., and gassed with 95% O2/5% CO2.

In a further data set the test system is rat aorta. The data set can be described thus: Rat aortic rings, endothelium intact or denuded, PE-induced contraction. In kind it is cell-based. The text has this: In these experiments, aorta (3 mm rings) were cleaned of adherent connective tissue and hung on stainless steel hooks attached between a force transducer and stationary mount for the measurement of isometric force generation. Endothelium was removed from some vessels by gentle rubbing of the lumen with a steel wire. Aortic rings were then placed in an isolated chamber, bathed in physiologic salt solution (mmol/L: 130 NaCl, 4.7 KCl, 1.18 KHPO4, 1.17 MgSO4, 1.6 CaCl2-2H2O, 14.9 NaHCO3, 5.5 dextrose, and 0.03 CaNa2EDTA; 37° C.) and gassed with 95% O2/5%CO2 Rings were set at 3 g passive tension and treated with indomethacin (1 μmol/L) to inhibit prostaglandin synthesis. Following a one hour equilibration period, vessels were contracted with phenylephrine (PE) (0.1 μmol/L) and subsequently treated with acetylcholine (1 μmol/L) to test for the presence of endothelium.

The test system of the next data set is cultured cells. The note with it: cited from earlier work.
A further data set has as its system cavernous sinuses. The data set can be described thus: Erectile response to 5V ganglionic stimulation after vasoconstrictor injected into cavernous sinuses. The note with it: for effect on erectile response to 5V ganglionic stimulation: METHOX 10 μg/kg or ET-1 50 pmol into cavernous sinuses. In kind it is in vivo. The procedure:
Thus, FIGS. 8 and 9 show results where after an initial (5V) ganglionic stimulation (Cont), either the α-adrenergic agonist, Methoxamine (METHOX) (10 μg/kg) or endothelin-1 (ET-1) (50 pmol) was injected into the cavernous sinuses.

The subject of data set [6] is corpus cavernosum. The experiment in a line: Ganglionic (major pelvic ganglion) stimulated increase in CCP/MAP in anesthetized rat. In kind it is in vivo. The conditions noted are these: for effect on baseline CCP or MAP: no stimulation; for CCP/MAP at 5 V (mean ± s.e.m.): n=4. The procedure: as §1
After initial measurements of CCP and MAP during ganglionic stimulation, rats were treated with L-NNA, L-NAME (200 μg/kg body weight), or saline control, and after 5 min ganglionic stimulation and CCP/MAP measurements were repeated. […] After 5 min, a 5-V stimulation was repeated, and CCP and MAP measurements were recorded.
Rho-kinase inhibition can also overcome muscle contraction due to inhibition of cyclic GMP formation. […] After 5 min, a 5-V stimulation was repeated, and CCP and MAP measurements were recorded.

The next data set concerns castrated rats. The experiment in a line: Erectile response to graded ganglionic stimulation in castrated rats. In kind it is in vivo, rat. The conditions noted are these: intracavernosal injection, 1-5 V. From the text:
Rats which have been rendered severely hypogonadal by surgical castration show a diminished erectile response.

The test system of data set [7] is corpus cavernosum. The data set can be described thus: Erectile response to electrical stimulation of the autonomic ganglion after phosphatase inhibitor injected into corpus cavernosum. In kind it is in vivo. The note with it: data not shown. The text has this: In an embodiment, the target of Rho-kinase is MLC phosphatase (FIG. 2). […] With MLC phosphatase activity inhibited, the resulting high levels of phosphorylated myosin light chain keep the sexual organs in a nonerect state.

Setting [8] is: 200 μg/kg into cavernosal sinuses.

As for `CC(N)[C@H]1CC[C@H](C(=O)Nc2ccncc2)CC1` (single isomer, unassigned; (+)) [Y-27632, monohydrate], the “dose at which MAP was significantly decreased” value in data set [1] was at least 400 nmol/kg. Moreover, the smooth muscle relaxation result (in data set [2]; in the data set on cultured cells) was “cause smooth muscle relaxation” throughout. Moreover, the “erectile response (increase in ICP/MAP)” value in the data set with erectile tissue was “cause an erectile response”. Moreover, the entries for the “erectile response (ICP/MAP)” value (in [3]; with SHRSP rats) were “elevating the erectile response to near normal levels” and “significantly increasing the erectile response”, respectively. For the same molecule, the “increase in CCP/MAP” value in the data set with corpus cavernosum [4] (2.0-400 nmol/kg body weight in 2 μl saline into left corpus cavernosum sinuses, no stimulation) is given as “significant dose-dependent increase”. In addition, the “time to plateau of CCP/MAP increase” value with corpus cavernosum [4] (2.0-400 nmol/kg intracavernosal) was “about four”. For the same molecule, the “maximum increase in CCP/MAP over control” value in the data set with corpus cavernosum [4] (range of 2.0-200 nmol/kg, independent of significant changes in MAP) came to 74%. Besides, the IC50 in data set [5] (Rattus norvegicus, read-out: IC50, relaxation of PE-induced tone) came out at 1000 nM. For the same molecule, in the data set with rat aorta (1 μmol/L prior to PE contraction, endothelium-denuded vessels), the “vasodilator sensitivity to SNP” value is reported as “increased vasodialator sensitivity to SNP”. In addition, the “inhibition of force generation to 10 μmol/L PE” value with rat aorta (1 μmol/L, endothelium denuded vessels) was “completely ineffective”; in the data set on rat aorta (1 μmol/L, endothelium intact rings), “significant inhibition of force generation”. The “inhibition of contractile response to 10 μmol/L PE” value in the data set with rat aorta (1 μmol/L, endothelium intact, in presence of L-NNA (100 μmol/L) or ODQ (10 μmol/L)) is recorded as “significantly less effective”; with rat aorta (10 μmol/L or 100 μmol/L, endothelium denuded rings), “concentration dependent inhibition”. Also, the “effect on vasoconstrictor action of ET-1” value in the data set with cavernous sinuses (50 nmol before ET-1 50 pmol, 5V) is reported as “vasoconstrictor effect was prevented”. Besides, in the data set with cavernous sinuses (50 nmol before METHOX 10 μg/kg, 5V), the “effect on vasoconstrictor action of METHOX” value is “vasoconstrictor effect was prevented”. In addition, in the data set on corpus cavernosum [6] (50 nmol/kg after L-NAME, 5 V), the “effect on attenuation of ganglionic-induced CCP/MAP increase by NOS inhibition” value is on record as “overcome”. The “effect on CCP/MAP response to ganglionic stimulation” value in the data set with corpus cavernosum [6] (200 nmol/kg into cavernous sinuses, 0-5 V) was “potentiated the CCP/MAP response to ganglionic stimulation at each voltage”. Besides, the “ganglionic-stimulated rise in CCP/MAP at lowest voltages” value with corpus cavernosum [6] (200 nmol/kg, lowest stimulation voltages) is given as “near maximal levels”. The “increase in ganglionic-stimulated CCP/MAP at 5 V” value in the data set with corpus cavernosum [6] (2.0-200 nmol/kg, 5 V) is 21-38%. Moreover, the erectile response entry in the data set on castrated rats is given as “restored to levels similar to those in age-matched intact animals”.

For the molecule `COC(=O)[C@@H](N)CCCNC(=N)N[N+](=O)[O-]` [L-NAME, N^ω-nitro-L-arginine methyl ester], the “effect on relaxation response of cavernosal strips to 1 μM Y-27632” value in data set [5] is “did not significantly alter”. In addition, in data set [5] (10 μM, 15 min), the “effect on PE-induced contraction” value was “no effect”. Moreover, the “effect on increase in CCP/MAP induced by 5 V stimulation” value in the data set with corpus cavernosum [6] (200 μg/kg into cavernosal sinuses, 5 V) is listed as “significantly attenuated”. Moreover, the “effect on baseline CCP or MAP” value in the data set on corpus cavernosum [6] (setting [8]) is given as “did not alter CCP or MAP from baseline”.

As to `N=C(NCCC[C@H](N)C(=O)O)N[N+](=O)[O-]` [L-NNA, N^ω-nitro-L-arginine], the “effect on baseline CCP or MAP” value in the data set on corpus cavernosum [6] (setting [8]) is “did not alter CCP or MAP from baseline”.

`CN(C)c1ccc2nc3ccc(=[N+](C)C)cc-3sc2c1` [MB, methylene blue]: the “effect on relaxation response of cavernosal strips to 1 μM Y-27632” value in [5] is listed as “did not significantly alter”. Moreover, the “CCP/MAP at 5 V (mean ± s.e.m.)” value with corpus cavernosum [6] (MB 300-500 μg/kg intracavernosal, Y-27632 50-200 nmol/kg in continued presence of MB) was 0.49±0.04.

Turning to `COc1ccc(OC)c(C(O)C(C)N)c1` (centres unmarked) [METHOX, Methoxamine], the “effect on erectile response to 5V ganglionic stimulation” value with cavernous sinuses was “lowered the erectile response”.

`O=c1onc2cnc3ccccc3n12` [ODQ, 1H-[1,2,4]oxadiozolo-[4,3-a]quinoxalin-1]: in the data set with corpus cavernosum [6] (ODQ 300-500 μg/kg intracavernosal, Y-27632 50-200 nmol/kg in continued presence of ODQ), the “CCP/MAP at 5 V (mean ± s.e.m.)” value worked out at 0.50±0.07.

Consider `[Na+].[Na+].[Na+].[O]=[V]([O-])([O-])[O-]` [SOV, sodium orthovanadate], for which, in the data set with corpus cavernosum [7] (0.1 and 1 μmol/L SOV), the “inhibition of erectile response” value is “significant inhibition”. In addition, the “effect on erectile response” value in the data set with corpus cavernosum [7] (injected into corpus cavernosum immediately before stimulation) is “inhibits the erectile response in a dose dependent manner”.

With “(+/−)-(E)-methyl-2-((E)-hydroxyimino)-5-nitro-6-methoxy-3-hexenamide [NOR-1]”, in the data set on erectile tissue, the “erectile response (increase in ICP/MAP)” value is given as “intermediate erectile response”.

For the molecule “endothelin-1 (CSCSSLMDKECVYFCHLDIIW; Endothelin-1; UniProt P05305 53-73, looked up) [ET-1, vasoconstrictor]”, the “effect on erectile response to 5V ganglionic stimulation” value in the data set on cavernous sinuses is listed as “lowered the erectile response”.
